The source of these data is PubChem BioAssay (NCI).

Among the test systems are HOP-92 NSCLC; SF-539 CNS; NCI/ADR-RES ovarian; OVCAR-4 ovarian; M14 melanoma; SK-MEL-28 melanoma; OVCAR-3 ovarian; HL-60(TB) leukemia; NCI-H226 lung; 786-0 renal.
What all share (assay): NCI anticancer screen, dose series, 48 h

Structures are written as SMILES. Several values for one entry are separate records, joined by “and”; a condition that tells them apart may be missing. Equal entries are not always repeated.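 A five-concentration, 48-hour dose response in 96-well plates underlies each endpoint, interpolated linearly between surrounding concentrations. GI50 is the concentration that inhibits growth by half. TGI denotes the concentration required for complete inhibition of growth.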

As to `CCC(C)CC(CC)NCCN1CCN(C(CC)CC(C)CC)C1=S` (centres undefined), the GI50 in the test with HOP-92 NSCLC is 1.05 µM; with SF-539 CNS, 1.97 µM; in the test on NCI/ADR-RES ovarian, 1.66 µM; with OVCAR-4 ovarian it was 1.59 µM; in the test on M14 melanoma, 1.79 µM; in the test with SK-MEL-28 melanoma it was 1.69 µM. The GI50 is 1.97 µM in the test on OVCAR-3 ovarian, 1.93 µM in the test with HL-60(TB) leukemia, 1.85 µM with NCI-H226 lung and 1.83 µM with 786-0 renal. Moreover, the TGI with HOP-92 NSCLC came to 2.96 µM; in the test with SF-539 CNS, 3.43 µM; in the test with NCI/ADR-RES ovarian, 3.39 µM; with OVCAR-4 ovarian, 3.91 µM; with M14 melanoma it was 3.25 µM; with SK-MEL-28 melanoma it was 3.06 µM. Moreover, the TGI is 4.08 µM in the test on OVCAR-3 ovarian, 3.77 µM in the test on HL-60(TB) leukemia, 4.02 µM in the test on NCI-H226 lung and 3.3 µM in the test with 786-0 renal.
Consider `CC(C)c1ccc(O)c(=O)cc1`, for which the GI50 in the test with HOP-92 NSCLC is 3.12 µM; with SF-539 CNS, 7.69 µM; with NCI/ADR-RES ovarian, 3.64 µM; in the test on OVCAR-4 ovarian, 4.56 µM; in the test with M14 melanoma, 16.3 µM; in the test with OVCAR-3 ovarian, 2.03 µM. For the same molecule, the GI50 with HL-60(TB) leukemia was 2.51 µM; with NCI-H226 lung it was 66.7 µM; in the test on 786-0 renal it was 14.7 µM. Also, the TGI is over 100 µM in the test with HOP-92 NSCLC; 17 µM with SF-539 CNS; 59.3 µM in the test with NCI/ADR-RES ovarian; over 100 µM in the test with OVCAR-4 ovarian; 40.6 µM in the test with M14 melanoma; over 100 µM in the test on SK-MEL-28 melanoma. For the same molecule, the TGI is > 100 µM and 18.3 µM in the test with OVCAR-3 ovarian; over 24.5 µM in the test with HL-60(TB) leukemia; 36.5 µM in the test with NCI-H226 lung; over 100 µM in the test with 786-0 renal.
`CN(C)CCCC(=O)Nc1ccc(Cn2nnc3c2C(=O)c2nnn(Cc4ccc(NC(=O)CCCN(C)C)cc4)c2C3=O)cc1`: the GI50 was 2.51 µM in the test on HOP-92 NSCLC; 2.34 µM in the test with SF-539 CNS; over 100 µM in the test with NCI/ADR-RES ovarian; 1.34 µM in the test on OVCAR-4 ovarian; 5.97 µM with M14 melanoma; 4.55 µM with SK-MEL-28 melanoma. Further, the GI50 with OVCAR-3 ovarian is 2.38 µM; in the test on HL-60(TB) leukemia it was 1.75 µM; in the test with NCI-H226 lung, 16.5 µM; in the test on 786-0 renal, 18.2 µM. The TGI was 5.82 µM with HOP-92 NSCLC; 5.6 µM with SF-539 CNS; over 100 µM with NCI/ADR-RES ovarian; 2.64 µM in the test on OVCAR-4 ovarian; 24.3 µM in the test with M14 melanoma; 20.3 µM in the test on SK-MEL-28 melanoma. Also, the TGI amounted to 6.02 µM with OVCAR-3 ovarian, 5.17 µM with HL-60(TB) leukemia, 42.2 µM with NCI-H226 lung and 44.2 µM with 786-0 renal.
For `O=C1C(=O)c2c(nc3ncccn23)-c2ccccc21`, the GI50 was 0.271 µM in the test on HOP-92 NSCLC; 0.188 µM in the test on SF-539 CNS; 0.301 µM in the test on NCI/ADR-RES ovarian; 0.161 µM in the test with OVCAR-4 ovarian; 0.182 µM in the test on M14 melanoma; 0.21 µM in the test on SK-MEL-28 melanoma. The GI50 in the test on OVCAR-3 ovarian is 0.204 µM; in the test on HL-60(TB) leukemia, 0.247 µM; in the test on NCI-H226 lung, 0.493 µM; with 786-0 renal it was 0.304 µM. Also, the TGI in the test with HOP-92 NSCLC amounted to 1 µM; with SF-539 CNS, 0.388 µM; with NCI/ADR-RES ovarian, 0.962 µM; in the test on OVCAR-4 ovarian, 0.297 µM; with M14 melanoma it was 0.343 µM; in the test with SK-MEL-28 melanoma it was 0.41 µM. The TGI in the test on OVCAR-3 ovarian was 0.5 µM; in the test on HL-60(TB) leukemia it was 0.64 µM; with NCI-H226 lung it was 1.25 µM; in the test with 786-0 renal, 0.766 µM.
Regarding `Cc1[nH]nc(C(=O)Nc2n[nH]c3ccccc23)c1[N+](=O)[O-]`, the GI50 with HOP-92 NSCLC is over 100 µM; in the test with SF-539 CNS, over 100 µM; with NCI/ADR-RES ovarian it was over 100 µM; in the test on OVCAR-4 ovarian, over 100 µM; in the test with M14 melanoma, over 96.2 µM; with SK-MEL-28 melanoma, over 100 µM. For the same molecule, the GI50 is over 100 µM in the test with OVCAR-3 ovarian, over 63 µM with HL-60(TB) leukemia, over 100 µM in the test with NCI-H226 lung and over 100 µM with 786-0 renal. Also, the TGI in the test with HOP-92 NSCLC, with SF-539 CNS, in the test on NCI/ADR-RES ovarian, in the test on OVCAR-4 ovarian, in the test with M14 melanoma and with SK-MEL-28 melanoma was over 100 µM in each case. In addition, the TGI was over 100 µM in the test on OVCAR-3 ovarian, over 96.1 µM in the test on HL-60(TB) leukemia, over 100 µM in the test on NCI-H226 lung and over 100 µM with 786-0 renal.
Take `Cc1ccc(-n2c(-c3ccc(Cl)cc3)cs/c2=N\NC(=O)COc2n[nH]c(=O)c3ccccc23)cc1`: the GI50 is 34.6 µM with HOP-92 NSCLC; 19.6 µM with SF-539 CNS; over 100 µM in the test with NCI/ADR-RES ovarian; over 100 µM in the test with OVCAR-4 ovarian; over 100 µM with M14 melanoma; over 100 µM in the test on SK-MEL-28 melanoma. For the same molecule, the GI50 in the test with OVCAR-3 ovarian was over 100 µM; with HL-60(TB) leukemia it was over 100 µM; in the test on NCI-H226 lung, 39.6 µM; in the test with 786-0 renal it was 51.4 µM. The TGI in the test with HOP-92 NSCLC is over 100 µM; in the test on SF-539 CNS, 71.8 µM; in the test on NCI/ADR-RES ovarian it was over 100 µM; in the test on OVCAR-4 ovarian it was over 100 µM; with M14 melanoma, over 100 µM; in the test with SK-MEL-28 melanoma, over 100 µM. Besides, the TGI with OVCAR-3 ovarian, with HL-60(TB) leukemia, in the test with NCI-H226 lung and in the test on 786-0 renal was over 100 µM throughout.
In the case of `C=C1C(=O)O[C@H]2[C@H]1CC/C(COC(=O)C(=O)c1cn(C)c3ccc(OC)cc13)=C\CC[C@@]1(C)O[C@@H]21`, the GI50 with HOP-92 NSCLC is 1.27 µM; in the test with SF-539 CNS, 4.96 µM; in the test with NCI/ADR-RES ovarian it was 4.97 µM; in the test on OVCAR-4 ovarian it was 5.2 µM; with M14 melanoma it was 3.22 µM; in the test on SK-MEL-28 melanoma, 3.14 µM. Also, the GI50 in the test on OVCAR-3 ovarian is 1.86 µM; in the test on HL-60(TB) leukemia it was 3.03 µM; with NCI-H226 lung, 5.45 µM; in the test with 786-0 renal, 3.84 µM. Further, the TGI turned out to be 3.17 µM in the test on HOP-92 NSCLC; 8.94 µM in the test on SF-539 CNS; 25.8 µM with NCI/ADR-RES ovarian; 25.5 µM with OVCAR-4 ovarian; 8.27 µM with M14 melanoma; 8.49 µM with SK-MEL-28 melanoma. The TGI was 3.42 µM in the test on OVCAR-3 ovarian, 8.89 µM in the test with HL-60(TB) leukemia, 10.1 µM in the test on NCI-H226 lung and 7.56 µM in the test with 786-0 renal.
